One experiment concerns EBC-1 cells. As to the kind of experiment: EBC-1 Cell Proliferation Assay (resazurin). To be noted: Homo sapiens, 67 h + 5 h resazurin, read-out: EBC1 Cell Proliferation. In kind it is cell-based. The protocol: EBC-1 cells (catalog #JCRB0820) were obtained from the Japan Health Science Research Resources Bank, Osaka, Japan. Briefly, cells were grown in DMEM supplemented with 10% characterized fetal bovine serum (Invitrogen, Carlsbad, Calif.) at 37 degrees Celsius, 5% CO2, 95% humidity. Cells were allowed to expand until reaching 70-95% confluency at which point they were subcultured or harvested for assay use.
EBC-1 Cell Proliferation Assay
A serial dilution of test compound was dispensed into a 96-well black clear bottom plate (Corning, Corning, N.Y.). For each cell line, five thousand cells were added per well in 200 μL complete growth medium. Plates were incubated for 67 hours at 37 degrees Celsius, 5% CO2, 95% humidity. […] Data was analyzed using Prism software (Graphpad, San Diego, Calif.) to calculate IC50 values.
(In general: Resazurin is reduced to fluorescent resorufin, in cell work by metabolically active cells.)

The target in experiment [1] is T1, c-MET kinase (Seq. ID no. 2) (Homo sapiens, UniProt P08581).
T1 construct: purchased Invitrogen PV3143
Kind of experiment: c-MET Kinase Assay (ADP production, pyruvate kinase/lactate dehydrogenase coupled). In kind it is biochemical. To be noted: read-out: cMET Enzyme Assay. The procedure: In this assay, the oxidation of NADH (thus the decrease at A340 nm) was continuously monitored spectrophometrically. […] Test compounds were incubated with C-Met (Seq. ID no. 2) and other reaction reagents at 22° C. for 0.5 h before ATP (100 μM) was added to start the reaction. The absorption at 340 nm was monitored continuously for 2 hours at 30° C. on Polarstar Optima plate reader (BMG). The reaction rate was calculated using the 1.0 to 2.0 h time frame. Percent inhibition was obtained by comparison of reaction rate with that of a control (i.e. with no test compound). IC50 values were calculated from a series of percent inhibition values determined at a range of inhibitor concentrations using software routines as implemented in the GraphPad Prism software package.

Experiment [2] has as its target KDR kinase (Seq ID No. 3) (Homo sapiens, UniProt P35968, DEL940-989/E990V). As to the kind of experiment: KDR Kinase Assay (assays K1, K2, K3). In kind it is biochemical. To be noted: assay variant K1, K2 or K3 not stated; read-out: KDR Enzyme Assay.
The next experiment addresses T2, FMS kinase (Homo sapiens, UniProt P07333).
T2 construct: purchased Invitrogen or Millipore
Kind of experiment: FMS Kinase Assay. In kind it is biochemical. To be noted: read-out: FMS Enzyme Assay. The protocol: (§1) In this assay, the oxidation of NADH (thus the decrease at A340 nm) was continuously monitored spectrophometrically. The reaction mixture (100 μl) contained FMS (purchased from Invitrogen or Millipore, 6 nM), polyE4Y (1 mg/ml), MgCl2 (10 mM), pyruvate kinase (4 units), lactate dehydrogenase (0.7 units), phosphoenol pyruvate (1 mM) and NADH (0.28 mM) and ATP (500 μM) in a 90 mM Tris buffer containing 0.2% octyl-glucoside and 1% DMSO, pH 7.5. The inhibition reaction was started by mixing serial diluted test compound with the above reaction mixture. The absorption at 340 nm was monitored continuously for 4 hours at 30° C. on a Polarstar Optima or Synergy 2 plate reader. The reaction rate was calculated using the 2 to 3 h time frame. Percent inhibition was obtained by comparison of reaction rate with that of a control (i.e. with no test compound). IC50 values were calculated from a series of percent inhibition values determined at a range of inhibitor concentrations using software routines as implemented in the GraphPad Prism software package.

Experiment [3] addresses T3, c-KIT kinase (Seq. ID no. 1) (Homo sapiens, UniProt P10721).
T3 construct: purchased ProQinase
As to the kind of experiment: c-KIT kinase Assay (ADP production, pyruvate kinase/lactate dehydrogenase coupled). To be noted: read-out: cKIT Enzyme Assay. Format: biochemical. The procedure: In this assay, the oxidation of NADH (thus the decrease at A340 nm) was continuously monitored spectrophometrically. […] The absorption at 340 nm was monitored continuously for 0.5 hours at 30° C. on Polarstar Optima plate reader (BMG). The reaction rate was calculated using the 0 to 0.5 h time frame. Percent inhibition was obtained by comparison of reaction rate with that of a control (i.e. with no test compound). IC50 values were calculated from a series of percent inhibition values determined at a range of inhibitor concentrations using software routines as implemented in the GraphPad Prism software package.

In a further experiment the target is T4, PDGFRα kinase (Homo sapiens, UniProt P16234).
T4 construct: purchased Invitrogen
As to the kind of experiment: PDGFRα Kinase Assay. Format: biochemical. To be noted: read-out: PDGFRa Enzyme Assay. The procedure: as §1, with “Activity of PDGFRα kinase was determined by following the production of ADP from the kinase reaction through coupling with the pyruvate kinase/lactate dehydrogenase system. In” for “In”, “PDGFRα (Invitrogen, 10” for “FMS (purchased from Invitrogen or Millipore, 6”

A further experiment deals with T5, PDGFRβ (Homo sapiens, UniProt P09619).
T5 construct: purchased Invitrogen
As to the kind of experiment: PDGFRβ Kinase Assay. Format: biochemical. To be noted: read-out: PDGFRb Enzyme Assay.

T4 sequence (P16234 24-1089): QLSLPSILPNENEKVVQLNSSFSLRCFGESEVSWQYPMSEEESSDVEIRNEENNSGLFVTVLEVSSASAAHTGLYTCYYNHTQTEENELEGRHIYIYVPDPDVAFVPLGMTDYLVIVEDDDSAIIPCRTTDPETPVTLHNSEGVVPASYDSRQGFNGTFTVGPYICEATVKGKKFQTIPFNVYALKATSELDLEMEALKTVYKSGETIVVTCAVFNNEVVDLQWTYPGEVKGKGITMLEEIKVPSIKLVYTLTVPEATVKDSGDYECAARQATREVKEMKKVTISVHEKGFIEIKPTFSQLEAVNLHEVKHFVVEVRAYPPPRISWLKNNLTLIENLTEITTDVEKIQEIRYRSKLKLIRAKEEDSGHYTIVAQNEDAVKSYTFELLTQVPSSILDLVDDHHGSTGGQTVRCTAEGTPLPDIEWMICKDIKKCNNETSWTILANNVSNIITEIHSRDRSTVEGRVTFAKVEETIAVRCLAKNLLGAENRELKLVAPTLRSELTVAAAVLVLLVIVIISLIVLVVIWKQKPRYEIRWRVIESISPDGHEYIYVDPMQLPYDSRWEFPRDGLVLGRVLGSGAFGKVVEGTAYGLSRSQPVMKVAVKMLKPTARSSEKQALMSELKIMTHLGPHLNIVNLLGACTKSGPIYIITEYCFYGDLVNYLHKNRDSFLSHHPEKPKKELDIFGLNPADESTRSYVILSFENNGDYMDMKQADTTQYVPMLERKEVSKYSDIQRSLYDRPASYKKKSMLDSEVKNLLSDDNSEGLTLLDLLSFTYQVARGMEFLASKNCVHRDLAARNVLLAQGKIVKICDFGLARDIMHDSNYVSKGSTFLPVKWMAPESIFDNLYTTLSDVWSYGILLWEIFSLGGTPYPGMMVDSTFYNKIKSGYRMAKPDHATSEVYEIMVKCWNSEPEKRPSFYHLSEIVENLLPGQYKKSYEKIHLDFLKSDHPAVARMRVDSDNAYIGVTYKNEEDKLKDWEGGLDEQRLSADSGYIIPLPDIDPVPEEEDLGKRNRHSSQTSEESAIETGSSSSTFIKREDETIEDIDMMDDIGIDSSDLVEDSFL
T3 sequence (P10721 with tags, fused parts or gaps): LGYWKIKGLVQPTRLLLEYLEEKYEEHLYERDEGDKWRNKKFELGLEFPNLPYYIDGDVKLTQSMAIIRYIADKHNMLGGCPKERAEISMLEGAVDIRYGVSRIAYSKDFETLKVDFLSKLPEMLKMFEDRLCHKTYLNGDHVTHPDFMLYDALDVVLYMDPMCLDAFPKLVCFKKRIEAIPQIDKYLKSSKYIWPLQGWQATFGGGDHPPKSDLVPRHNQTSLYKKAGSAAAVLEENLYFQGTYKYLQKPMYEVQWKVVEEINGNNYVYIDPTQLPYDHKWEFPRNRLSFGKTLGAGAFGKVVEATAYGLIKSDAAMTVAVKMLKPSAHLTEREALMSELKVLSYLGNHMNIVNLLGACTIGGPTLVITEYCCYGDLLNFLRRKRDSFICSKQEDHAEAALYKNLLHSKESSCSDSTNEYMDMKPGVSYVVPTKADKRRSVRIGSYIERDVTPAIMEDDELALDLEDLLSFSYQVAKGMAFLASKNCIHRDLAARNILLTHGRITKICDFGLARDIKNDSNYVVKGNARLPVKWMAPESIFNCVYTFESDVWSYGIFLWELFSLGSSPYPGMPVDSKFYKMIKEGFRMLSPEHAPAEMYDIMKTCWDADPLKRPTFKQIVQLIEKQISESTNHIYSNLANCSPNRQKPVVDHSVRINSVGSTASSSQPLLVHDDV
T5 sequence (P09619 33-1106): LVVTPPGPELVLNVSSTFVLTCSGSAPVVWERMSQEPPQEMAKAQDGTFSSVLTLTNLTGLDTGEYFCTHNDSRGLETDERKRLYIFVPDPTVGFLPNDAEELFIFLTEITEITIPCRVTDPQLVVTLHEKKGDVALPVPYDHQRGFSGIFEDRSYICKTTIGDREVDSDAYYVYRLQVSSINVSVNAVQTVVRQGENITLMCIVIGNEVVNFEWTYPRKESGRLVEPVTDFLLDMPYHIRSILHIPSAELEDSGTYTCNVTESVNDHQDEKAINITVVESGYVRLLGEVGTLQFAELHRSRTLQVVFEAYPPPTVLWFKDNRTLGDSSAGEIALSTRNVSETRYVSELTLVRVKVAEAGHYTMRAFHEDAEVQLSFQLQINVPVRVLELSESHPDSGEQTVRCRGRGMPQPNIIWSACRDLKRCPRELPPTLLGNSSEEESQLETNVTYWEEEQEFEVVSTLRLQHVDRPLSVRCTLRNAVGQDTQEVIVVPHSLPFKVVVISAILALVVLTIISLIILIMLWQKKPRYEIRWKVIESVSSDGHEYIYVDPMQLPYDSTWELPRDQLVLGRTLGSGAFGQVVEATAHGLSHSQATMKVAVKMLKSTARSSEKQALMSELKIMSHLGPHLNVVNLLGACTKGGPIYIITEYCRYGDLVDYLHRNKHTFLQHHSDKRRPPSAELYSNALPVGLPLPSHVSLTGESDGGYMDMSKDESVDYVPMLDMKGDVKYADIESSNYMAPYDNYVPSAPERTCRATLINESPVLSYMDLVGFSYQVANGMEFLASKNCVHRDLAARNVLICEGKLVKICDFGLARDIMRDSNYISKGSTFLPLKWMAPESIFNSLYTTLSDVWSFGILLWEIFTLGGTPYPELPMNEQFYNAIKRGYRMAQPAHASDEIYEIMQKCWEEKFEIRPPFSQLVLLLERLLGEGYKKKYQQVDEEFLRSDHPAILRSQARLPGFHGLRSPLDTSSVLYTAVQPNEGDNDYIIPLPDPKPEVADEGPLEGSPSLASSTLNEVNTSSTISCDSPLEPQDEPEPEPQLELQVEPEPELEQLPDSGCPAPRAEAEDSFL
T1 sequence (P08581 with tags, fused parts or gaps): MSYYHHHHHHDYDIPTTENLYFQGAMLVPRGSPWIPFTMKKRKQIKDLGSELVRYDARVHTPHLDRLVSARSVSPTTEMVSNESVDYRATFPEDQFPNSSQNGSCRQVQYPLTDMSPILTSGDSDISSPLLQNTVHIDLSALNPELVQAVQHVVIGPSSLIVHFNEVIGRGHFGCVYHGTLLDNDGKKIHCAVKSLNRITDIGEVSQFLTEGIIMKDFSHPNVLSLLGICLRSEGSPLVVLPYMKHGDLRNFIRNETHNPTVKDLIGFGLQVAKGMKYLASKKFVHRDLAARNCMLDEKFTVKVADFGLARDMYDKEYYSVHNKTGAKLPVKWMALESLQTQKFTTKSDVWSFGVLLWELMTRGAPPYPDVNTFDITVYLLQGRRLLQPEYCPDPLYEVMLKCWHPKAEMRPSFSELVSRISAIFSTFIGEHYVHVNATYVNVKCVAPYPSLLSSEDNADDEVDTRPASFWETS
T2 sequence (P07333 20-972): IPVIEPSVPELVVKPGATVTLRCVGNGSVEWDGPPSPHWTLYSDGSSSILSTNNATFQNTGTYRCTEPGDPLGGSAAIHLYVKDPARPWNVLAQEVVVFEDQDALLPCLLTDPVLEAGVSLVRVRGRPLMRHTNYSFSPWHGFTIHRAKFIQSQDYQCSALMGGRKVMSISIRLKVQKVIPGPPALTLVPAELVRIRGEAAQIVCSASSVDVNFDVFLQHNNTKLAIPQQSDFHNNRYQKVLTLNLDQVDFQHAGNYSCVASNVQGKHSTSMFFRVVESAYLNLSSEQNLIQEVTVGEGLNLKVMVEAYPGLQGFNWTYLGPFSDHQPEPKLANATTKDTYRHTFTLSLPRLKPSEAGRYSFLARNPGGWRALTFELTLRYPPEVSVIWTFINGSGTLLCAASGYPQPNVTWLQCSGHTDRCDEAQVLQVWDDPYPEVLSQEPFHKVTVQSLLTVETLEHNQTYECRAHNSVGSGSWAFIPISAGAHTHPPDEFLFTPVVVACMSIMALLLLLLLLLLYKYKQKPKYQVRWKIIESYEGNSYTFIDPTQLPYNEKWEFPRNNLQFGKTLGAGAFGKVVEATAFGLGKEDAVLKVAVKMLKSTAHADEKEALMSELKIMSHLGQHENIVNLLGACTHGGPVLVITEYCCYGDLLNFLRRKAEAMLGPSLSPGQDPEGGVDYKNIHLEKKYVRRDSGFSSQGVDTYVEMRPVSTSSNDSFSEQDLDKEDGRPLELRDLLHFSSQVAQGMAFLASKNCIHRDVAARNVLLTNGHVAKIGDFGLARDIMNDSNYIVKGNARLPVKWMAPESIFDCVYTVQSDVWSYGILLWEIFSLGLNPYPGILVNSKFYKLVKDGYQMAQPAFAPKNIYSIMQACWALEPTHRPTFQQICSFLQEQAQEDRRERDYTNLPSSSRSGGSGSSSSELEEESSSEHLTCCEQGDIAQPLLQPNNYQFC
Chain of KDR kinase (Seq ID No. 3) (P35968 with tags, fused parts or gaps DEL940-989/E990V): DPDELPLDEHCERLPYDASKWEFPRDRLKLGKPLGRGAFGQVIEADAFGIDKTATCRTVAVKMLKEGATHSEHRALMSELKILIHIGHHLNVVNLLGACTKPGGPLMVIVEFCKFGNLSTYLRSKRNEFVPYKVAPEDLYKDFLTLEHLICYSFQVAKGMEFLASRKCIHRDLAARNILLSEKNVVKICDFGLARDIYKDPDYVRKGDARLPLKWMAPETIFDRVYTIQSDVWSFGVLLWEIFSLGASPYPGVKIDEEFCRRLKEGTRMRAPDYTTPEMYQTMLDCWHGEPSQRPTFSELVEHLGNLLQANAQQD

Take `O=C(Nc1ccc(F)cc1)C1(C(=O)Nc2ccc(Oc3ccnc(-c4cn[nH]c4)c3)c(F)c2)CC1` [Example 31, N-(4-(2-(1H-pyrazol-4-yl)pyridin-4-yloxy)-3-fluorophenyl)-N′-(4-fluorophenyl)cyclopropane-1,1-dicarboxamide]: the IC50 with EBC-1 cells is under 2000 nM; in experiment [1], under 200 nM.
Consider `CCn1cc(-c2cc(Oc3ccc(NC(=O)C4(C(=O)Nc5ccc(F)cc5)CC4)cc3F)ccn2)cn1` [Example 19, N-(4-(2-(1-ethyl-1H-pyrazol-4-yl)pyridin-4-yloxy)-3-fluorophenyl)-N′-(4-fluorophenyl)cyclopropane-1,1-dicarboxamide], for which the IC50 with EBC-1 cells is under 2000 nM.
Consider `Cn1cc(-c2cc(Oc3ccc(NC(=O)C4(C(=O)NCc5ccccc5)CC4)cc3F)ccn2)cn1` [Example 4, N-benzyl-N′-(3-fluoro-4-(2-(1-methyl-1H-pyrazol-4-yl)pyridin-4-yloxy)phenyl)cyclopropane-1,1-dicarboxamide], for which the IC50 is under 2 µM in experiment [2]; under 0.2 µM at FMS kinase; under 2000 nM in experiment [3]; under 10 µM at PDGFRα kinase; under 10 µM at PDGFRβ.
As to `Cn1cc(-c2ccnc(Oc3ccc(F)c(NC(=O)C4(C(=O)Nc5ccc(F)cc5)CC4)c3)n2)cn1` [Example 53, N-(2-fluoro-5-(4-(1-methyl-1H-pyrazol-4-yl)pyrimidin-2-yloxy)phenyl)-N′-(4-fluorophenyl)cyclopropane-1,1-dicarboxamide], the IC50 in experiment [2] was under 10 µM; on FMS kinase, under 10 µM; in experiment [1], under 10000 nM.
For `CCCn1cc(-c2cc(Oc3ccc(NC(=O)C4(C(=O)Nc5ccc(F)cc5)CC4)cc3F)ccn2)cn1` [Example 20, N-(3-fluoro-4-(2-(1-propyl-1H-pyrazol-4-yl)pyridin-4-yloxy)phenyl)-N′-(4-fluorophenyl)cyclopropane-1,1-dicarboxamide], the IC50 in the experiment with EBC-1 cells is under 2000 nM.
With `C[C@@H](NC(=O)C1(C(=O)Nc2ccc(Oc3ccnc(-c4cnn(C)c4)c3)c(F)c2)CC1)c1ccccc1` [Example 17, N-(3-fluoro-4-(2-(1-methyl-1H-pyrazol-4-yl)pyridin-4-yloxy)phenyl)-N′-((R)-1-phenylethyl)cyclopropane-1,1-dicarboxamide], the IC50 in experiment [2] was under 10 µM; on FMS kinase it was under 0.2 µM; in experiment [3], under 2000 nM; on PDGFRα kinase, under 10 µM; at PDGFRβ, under 10 µM.
For the compound `Cc1cc(F)c(NC(=O)C2(C(=O)Nc3ccc(F)cc3)CC2)cc1Oc1nccc(-c2cn[nH]c2)n1` [Example 54, N-(5-(4-(1H-pyrazol-4-yl)pyrimidin-2-yloxy)-2-fluoro-4-methylphenyl)-N′-(4-fluorophenyl)cyclopropane-1,1-dicarboxamide], the results for the IC50 (in experiment [2]; at FMS kinase; in experiment [1]) were under 10 µM, under 10 µM and under 10000 nM, respectively.
On to `O=C(Nc1ccc(F)cc1)C1(C(=O)Nc2ccc(Oc3ccnc(-c4cnn(CCO)c4)c3)c(F)c2)CC1` [Example 21, N-(3-fluoro-4-(2-(1-(2-hydroxyethyl)-1H-pyrazol-4-yl)pyridin-4-yloxy)phenyl)-N′-(4-fluorophenyl)cyclopropane-1,1-dicarboxamide], for which the IC50 in experiment [2] was under 2 µM; with EBC-1 cells it was under 2000 nM; in experiment [3], under 2000 nM; in experiment [1], under 2000 nM; on PDGFRα kinase, under 2 µM; at PDGFRβ it was under 10 µM.
`O=C(Nc1ccc(F)cc1)C1(C(=O)Nc2cc(Oc3nccc(-c4cn[nH]c4)n3)ccc2F)CC1` [Example 55, N-(5-(4-(1H-pyrazol-4-yl)pyrimidin-2-yloxy)-2-fluorophenyl)-N′-(4-fluorophenyl)cyclopropane-1,1-dicarboxamide]: the IC50 in experiment [2] was under 10 µM; on FMS kinase, under 10 µM; in experiment [3], under 10000 nM; in experiment [1], under 10000 nM; at PDGFRα kinase it was under 10 µM; on PDGFRβ, under 10 µM.
As for `Cc1c(-c2cc(Oc3cc(F)c(NC(=O)C4(C(=O)Nc5ccc(F)cc5)CC4)cc3F)ccn2)cnn1C` [Example 50, N-(4-(2-(1,5-dimethyl-1H-pyrazol-4-yl)pyridin-4-yloxy)-2,5-difluorophenyl)-N′-(4-fluorophenyl)cyclopropane-1,1-dicarboxamide], the IC50 in experiment [2] was under 0.2 µM; in the experiment on EBC-1 cells, under 200 nM; in experiment [3] it was under 200 nM; in experiment [1] it was under 200 nM; at PDGFRα kinase, under 2 µM; at PDGFRβ, under 10 µM.
For `Cn1cc(-c2cc(Oc3c(F)cc(NC(=O)NC(=O)Cc4ccc(F)cc4)cc3F)ccn2)cn1` [Example 48, 1-(3,5-difluoro-4-(2-(1-methyl-1H-pyrazol-4-yl)pyridin-4-yloxy)phenyl)-3-(2-(4-fluorophenyl)acetyl)urea], the IC50 in experiment [2] was under 2 µM; at FMS kinase, under 10 µM; in experiment [3], under 2000 nM; in experiment [1] it was under 10000 nM; at PDGFRα kinase, under 10 µM; on PDGFRβ, under 10 µM.
For “1-(2,3-difluoro-4-(2-(1H-pyrazol-4-yl)pyridin-4-yloxy)phenyl)-3-(2-(4-fluorophenyl)acetyl)urea [Example 43]”, the IC50 in experiment [2] is under 10 µM; on FMS kinase, under 0.2 µM; in experiment [3] it was under 2000 nM; in experiment [1], under 2000 nM; on PDGFRα kinase, under 0.2 µM; on PDGFRβ, under 2 µM.
Regarding `Cn1cc(-c2cc(Oc3ccc(NC(=O)C4(C(=O)Nc5ccc(F)cc5)CC4)cn3)ccn2)cn1` [Example 38, N-(4-fluorophenyl)-N′-(6-(2-(1-methyl-1H-pyrazol-4-yl)pyridin-4-yloxy)pyridin-3-yl)cyclopropane-1,1-dicarboxamide], the figures for the IC50 (in experiment [2]; on FMS kinase; in experiment [1]) were under 10 µM, under 10 µM and under 2000 nM, respectively.
Turning to `Cn1cc(-c2cc(Oc3ccc(NC(=O)C4(C(=O)Nc5ccc(F)cc5)CC4)cc3Cl)ccn2)cn1` [Example 30, N-(3-chloro-4-(2-(1-methyl-1H-pyrazol-4-yl)pyridin-4-yloxy)phenyl)-N′-(4-fluorophenyl)cyclopropane-1,1-dicarboxamide], the IC50 is under 2000 nM in the experiment on EBC-1 cells; under 200 nM in experiment [3]; under 200 nM in experiment [1]; under 2 µM at PDGFRα kinase; under 10 µM at PDGFRβ.

Source of the values: patent US8486951B2 (Deciphera Pharmaceuticals, LLC, priority 2008, dated 2013).
